Results: patent US10022326B2, “Liposomal compositions of epoxyketone-based proteasome inhibitors” (ONYX THERAPEUTICS, INC., priority 2012, dated 2018)

Biological target: T1, chymotrypsin-like activity of the proteasome (Mus musculus, UniProt O55234)
T1 construct: measurement of proteasome activity in whole blood (primarily erythrocytes); from tissue; host or cells: whole blood (primarily erythrocytes), adrenal, liver and heart of BALB/C mice
T1 sequence (O55234 60-264): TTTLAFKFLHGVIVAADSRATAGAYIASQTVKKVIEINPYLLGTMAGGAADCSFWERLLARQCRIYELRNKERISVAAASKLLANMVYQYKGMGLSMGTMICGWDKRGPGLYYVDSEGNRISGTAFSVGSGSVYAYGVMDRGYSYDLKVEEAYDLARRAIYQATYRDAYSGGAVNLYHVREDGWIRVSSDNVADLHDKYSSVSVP
Assay: Pharmacodynamic response: proteasome activity in whole blood, adrenal, liver and heart (LLVY-AMC substrate)
Assay type: in vivo, BALB/C mice
Conditions: mice, single i.v. dose, whole blood (primarily erythrocytes), up to 24 hours
Procedure: The pharmacodynamic response of carfilzomib formulated in SBE-B-CD (CFZ SBE-B-CD) (using a non-liposomal, injectable composition of carfilzomib formulated in 10% sulfobutylether beta cyclodextrin (SBE-B-CD), 10 mM Citrate, pH 3.5 (see, e.g., U.S. Patent Publication Nos. 2011/0236428)), empty liposomes (Composition D), liposomes comprising CFZ (L-CFZ, Composition C), and pegylated liposomes comprising (pL-CFZ, Composition E) was evaluated in BALB/C mice following a single intravenous bolus administration.
The mice (three mice per time point) were administered a dose of 10 mg/kg in a dose volume of 5 mL/kg. […] The pharmacodynamic response was determined by measurement of proteasome activity in whole blood (primarily erythrocytes) (see FIG. 2A), adrenal (see FIG. 2B), liver (see FIG. 2C), and heart (see FIG. 2D), using a fluorogenic substrate (LLVY-AMC [Leu-Leu-Val-Tyr-AMC {AMC=7-amido 4-methylcoumarin}]; as described by Lightcap E S, McCormack T A, Pien C S, et al., Clin. Chem. 46:673-683 (2000)) to quantitate the chymotrypsin-like activity of the proteasome. […] Three tissue samples were evaluated per time point for each tissue from each mouse.
The pharmacodynamic response of liposomal compositions comprising liposomes comprising an aqueous core loaded with CFZ complexed with SBE-B-CD was evaluated in BALB/C mice following a single intravenous bolus administration. […]

- recovery of proteasome activity in blood: no recovery
Structure (SMILES): CC(C)C[C@H](NC(=O)[C@H](CCc1ccccc1)NC(=O)CN1CCOCC1)C(=O)N[C@@H](Cc1ccccc1)C(=O)N[C@@H](CC(C)C)C(=O)[C@@]1(C)CO1 [carfilzomib]
